Reference: patent US8822533B1, “Methods and compositions for repelling and/or killing insects” (The United States of America, as represented by the …, priority 2011, dated 2014)

Columns and labels:
[1] = tested on: Ae. aegypti mosquitoes; test: Sleeve bite protection assay on treated uniform fabric, mosquitoes; format: in vivo, Aedes aegypti (Orlando, 1952)
Procedure: (§1) Biological Evaluation: Bite protection assays were conducted with laboratory-reared 7-12 day old mosquitoes or sand flies. The species used throughout these studies are Aedes aegypti (Orlando, 1952) and Phlebotomus papatasi sand flies (Jerusalem, 1983). Females were pre-selected using either a hand draw box or a mechanical aspirator. An assay was conducted by wearing sewn sleeves made from clothing material. Treated specimens were assayed with untreated controls to correct for the bite resistance afforded by material construction and composition. The untreated control was tested at the beginning of the experiment, followed by successively higher candidate repellent concentrations on sleeves. Sleeves were sewn from a cut out single ply trapezoidal pattern (33.2 cm×21 cm×25.5 cm height) of material. […] Permethrin was 35:65cis: trans, 95.85% technical material. Experimental repellents were received as neat samples with <5% impurities. The treatment occurred by dissolution of repellent in suitable quantity of acetone to saturate the clothing, but minimizing excess solution. Excess solution was quantified and this amount of excess was then used to calculate the estimated amount of repellent applied to the material. […] The photoperiod was 12:12. The mosquito cages were approximately 60000 cm^3 and each contained 175 to 225 female mosquitoes. […] Cages for sand fly work were slightly smaller (15000 cm^3) and constructed of acrylic for filming purposes and with screens on the exterior edges to allow air flow through the system. About 20-40 sand flies were released in cages for each assay. Assays started when the sleeved arm was inserted through the sleeve into the cage. Normally the hand was protected by a glove, but there were situations (i.e. sand fly data presented here) when the ability of a repellent to protect the untreated hand was determined. The assay periods were 15 min for the mosquitoes and 25-30 minutes for sand flies. The insects were allowed to land, probe and possibly bloodfeed during this time. At the conclusion of the experiment, all insects were knocked down or aspirated and the percentage that bloodfed of the total female test population in the cage was recorded. The protect level was calculated by Abbott's formula as a percentage reduction in bites compared to the untreated fabric control sleeve. Specific conditions for bioassays are noted with corresponding data contained in the Tables.

[2] = tested on: Phlebotomus papatasi sand flies; test: Sleeve bite protection assay on treated uniform fabric, sand flies; format: in vivo, Phlebotomus papatasi (Jerusalem, 1983); conditions: FRACU, 25-29 minutes
Procedure: as §1

[3] = tested on: Mosquitoes, either Aedes aegypti (Liverpool) or Anopheles stephensi Liston; test: K&D module in vitro bioassay: biting protection, knockdown and mortality; format: in vivo
Procedure: In vitro bioassays were conducted as described by Klun et. al. (Klun, J. A., et al., J. Med. Entomol., 40: 293-299 (2005)). Each test replicate consisted of 3 treatments: a control (EtOH); a standard (Deet, 4.54 nmol/μl); and an experimental compound (pyrethroid analogs, 4.54 nmol/ul). The 3 treatments were randomly assigned to consecutive cells in 2, 6-cell reservoirs connected in series to a single water-bath pump; thus, 4 replicates could be tested/run. Tests were performed in an Air Science USA hood, with an air movement velocity of approx. 110-120 ft./min., temperature of 25-27° C., and RH of 15-25%. A 6-celled reservoir was connected to and heated by a constant-temperature (38° C.) water circulator (Lauda E100, Wobser GMGH and Co., Konigshofell, Germany).
Prior to each test, the upper surface of each reservoir was coated with a thin layer of high-vacuum silicone grease (Dow Corning Corp., Midland, Mich.), and the cells then filled (approx. 6 ml. capacity) or topped-off with either: (1) expired human red blood cells suspended in citrate-phosphate-dextrose-adenine (CPDA) solution, not more than 1 month past expiration date, and to which 110 mg ATP/35 ml. blood-CPDA had been added on the day of testing; or (2) CPDA+ATP×^−3, usually made up or diluted to 10^−3 ATP on the day of testing. The filled cells were then covered with an Edicol collagen membrane (Devro, Sandy Run, S.C.) strip, and then with a just-treated (110 μl of 4.54 nmol/μl treatment or control solution) organdy cloth (G Street Fabrics, Rockville, Md.) strip. Mosquitoes used in tests were either Aedes aegypti_(Liverpool) or Anopheles stephensi_Liston. K&D modules containing 5 adult females/cell were placed over a Teflon separator atop each reservoir; the sliding floors opened allowing access to the treated organdy cloth and membrane-covered cell; and the number of mosquitoes biting (proboscis inserted through the cloth) and/or observed to be engorged within each cell at the end of a 3-5 min. exposure period was recorded. Mosquitoes were used only once in a test, and then frozen and discarded.
Only tests in which 3 or more females fed in the control cell were analyzed, as lower feeding rates are indicative of substandard feeding readiness of that group of mosquitoes.
[…] Data were collected to record knockdown in 6 minutes, one hour and 24 hours post exposure.

[4] = ACU (50/50 NYCO) sleeve, glove on hand, 15 min, permethrin 0.118, transfluthrin 0.108, TL-I-107 0.107, TL-I-141 0.109, TL-I-105 0.107, TL-I-73 0.102 mg/cm^2
[5] = ACU (50/50 NYCO) sleeve, glove on hand, Abbott's formula vs untreated sleeve, concentrations as E1
[6] = ACU (50/50 NYCO) sleeve, glove on hand, concentrations as E1
[7] = ACU sleeve, No Glove on hand, permethrin 0.118, transfluthrin 0.108 mg/cm^2
[8] = ACU sleeve, stored one year then tested, concentrations as E1
[9] = ACU sleeve, treated specimens stored in refrigerator for one year then tested, concentrations as E1
[10] = FRACU sleeve, concentrations as E9
[11] = FRACU, permethrin sleeve 0.135 mg/cm^2 + untreated strip, Ultrathon (34.34% DEET) on hand
[12] = FRACU, permethrin sleeve 0.135 mg/cm^2 + untreated strip, hand gloved
[13] = permethrin sleeve 0.135 mg/cm^2 + untreated strip, hand ungloved
[14] = FRACU, untreated sleeve + treated strip, Ultrathon (34.34% DEET) on hand, TL-I-73 0.163, transfluthrin 0.158 mg/cm^2
[15] = FRACU, untreated sleeve + treated strip, hand gloved, TL-I-73 0.163, transfluthrin 0.158 mg/cm^2
[16] = untreated sleeve + TL-I-73 strip 0.163 mg/cm^2, hand ungloved

Structure (SMILES) | Blood-fed # [1, 4] | Bite Protection (%) [1, 5] [%] | Fed (%) [1, 6] [%] | Bite Protection (%) [1, 8] [%] | Fed (%) [1, 8] [%] | Blood-fed # [1, 9] | Knockdown 6 min (%) ([3]; 2.5 nM\cm^2, K&D module) | Knockdown 1 hour (%) ([3]; 2.5 nM\cm^2, K&D module) | Knockdown 24 hours (%) ([3]; 2.5 nM\cm^2, K&D module) | Not feeding 3 minutes (%) ([3]; 2.5 nM\cm^2, K&D module) | Knockdown 6 min (%) ([3]; 25 nM\cm^2, K&D module) | Knockdown 1 hour (%) ([3]; 25 nM\cm^2, K&D module) | Knockdown 24 hours (%) ([3]; 25 nM\cm^2, K&D module) | Not feeding 3 minutes (%) ([3]; 25 nM\cm^2, K&D module) | other results
CC1(C)C(C=C(Cl)Cl)C1C(=O)OCc1cccc(Oc2ccccc2)c1 (centres unmarked) [Permethrin] | 0 # | 100 | 0.0 | 100 | 0.0 | 0 # | – | – | – | – | – | – | – | – | Blood-fed # [1, 7]: 32 #; Fed (%) [1, 7]: 18.1%; Blood-fed # ([1]; FRACU (65% Rayon, 10% Nylon, 25% Para-aramid) sleeve, permethrin 0.071, combination permethrin 0.031 + transfluthrin 0.038, transfluthrin 0.052 mg/cm^2): 24 #; Bite Protection (%) [1, 10]: 86.7%; Fed (%) [1, 10]: 10.5%; Bite Protection (%) [1, 11]: 71.5%; Blood-fed # [1, 11]: 15 #; Fed (%) [1, 11]: 7.6%; Bite Protection (%) [1, 12]: 94.0%; Blood-fed # [1, 12]: 10 #; Fed (%) [1, 12]: 4.9%; Bite Protection (%) [2, 13]: −28.5%; Blood-fed # [2, 13]: 11 #; Fed (%) [2, 13]: 52.3%; Bite Protection (%) ([2]; permethrin sleeve 0.135 mg/cm^2 + untreated strip, hand ungloved, listed as permethrin): increased bites on the skin
COCc1c(Cl)c(Cl)c(COC(=O)[C@@H]2[C@@H](C=C(C)C)C2(C)C)c(Cl)c1Cl [TL-I-73] | 0 # | 100 | 0.0 | 100 | 0.0 | 0 # | 97 | 100 | 100 | 100 | 97 | 100 | 100 | 100 | Blood-fed # ([1]; FRACU, untreated sleeve + treated strip (20.5 cm × 2.6 cm) at wrist, hand gloved, TL-I-73 0.163, transfluthrin 0.158 mg/cm^2): 71 #; Blood-fed # ([1]; FRACU, untreated sleeve + treated strip, Ultrathon 12 hr repellent (34.34% DEET) on hand, TL-I-73 0.163, transfluthrin 0.158 mg/cm^2): 85 #; Bite Protection (%) [1, 14]: −45%; Fed (%) [1, 14]: 38.8%; Bite Protection (%) [1, 15]: 57.2%; Fed (%) [1, 15]: 10.5%; Bite Protection (%) [2, 16]: 21.8%; Blood-fed # [2, 16]: 7 #; Fed (%) [2, 16]: 31.8%
CC(C)=C[C@@H]1[C@@H](C(=O)OCc2c(Cl)c(Cl)c(C)c(Cl)c2Cl)C1(C)C [TL-I-109] | – | – | – | – | – | – | 4 | 35 | 6 | 98 | 4 | 58 | 37 | 98 | –
Cc1c(Cl)c(Cl)c(COC(=O)C2C(C=C(Cl)Cl)C2(C)C)c(Cl)c1Cl (centres unmarked) [TL-I-111] | – | – | – | – | – | – | 0 | 16 | 8 | 90 | 2 | 23 | 16 | 92 | –
Cc1c(Cl)c(Cl)c(COC(=O)C2C(C=C(Cl)C(F)(F)F)C2(C)C)c(Cl)c1Cl (centres unmarked) [TL-I-113] | – | – | – | – | – | – | 0 | 14 | 9 | 76 | 0 | 34 | 23 | 92 | –
Cc1c(F)c(F)c(COC(=O)[C@@H]2[C@@H](C=C(Cl)Cl)C2(C)C)c(F)c1F [TL-I-141] | 0 # | 100 | 0.0 | 100 | 0.0 | 0 # | 100 | – | 100 | 100 | 100 | – | 100 | 100 | Knockdown 1 hour (%) ([3]; 2.5 nmol/cm^2, K&D module): 100%; Knockdown 1 hour (%) ([3]; 25 nmol/cm^2, K&D module): 100%; mortality at 0.0025 µM ([3]; Aedes aegypti, 24 h): 100%; mortality at 0.025 µM ([3]; Aedes aegypti, 48 h): 100%
CC1(C)C(C=C(Cl)Cl)C1C(=O)OC(C#N)c1cccc(Oc2ccccc2)c1 (centres unmarked) [a-cypermethrin, reference compound] | – | – | – | – | – | – | 67 | 91 | 100 | 81 | 83 | 100 | 100 | 98 | –
